Results on 11 molecules are retold here after paper PMC5689723, “Targeting aggressive prostate cancer-associated CD44v6 using phage display selected peptides” (Oncotarget, 2017).

Like-named read-outs stand apart in the source and are kept apart here. Ends that are not written are not given here. Peptide text beside a SMILES is read from it. * marks the point of attachment. Biotin = O=C1N[C@H]2[C@H](CS[C@H]2CCCCC(=O)*)N1

One assay addresses T1, recombinant CD44v6-Fc (Homo sapiens, UniProt P16070, DEL223-384/DEL429-575).
T1 construct: the ECD of CD44 and CD44v6 protein were expressed as Fc-tagged proteins; made in house; host or cells: CHO-K1 cells, purified by protein A chromatography
Nature of the assay: Peptide-Protein ELISA, recombinant CD44v6-Fc. The format is binding. The conditions noted are these: 2 h at RT, 490 nm; for Kd: biotinylated peptide, CD44v6-Fc coated at 1 μg/ml, pH 9.6, 0.5% BSA in PBST, HRP-streptavidin, nonlinear regression, GraphPad Prism 6.0; for binding to recombinant CD44v6-Fc (in words): biotinylated synthetic peptides, various concentrations, Figure 2C, 2D. From the text: Figure 2 Characterization of peptide binding to recombinant CD44v6 (A) Schematic of recombinant CD44v6-Fc and CD44-Fc expression construct. The number of constant exons (1-5 and 15-17) are marked. (B) SDS-PAGE analysis and immunoblotting of purified CD44v6-Fc and CD44-Fc (M, BioRad precision plus all blue prestained protein standard; lane 1, CD44v6-Fc; lane 2, CD44-Fc). For SDS-PAGE analysis, the purified proteins were detected by coomassie blue staining. For immunoblotting, the mouse anti-human Fc Ab or mouse anti-human v6 region specific mAb VFF18 was used as the primary Ab and HRP conjugated goat anti-mouse Ab was used as the secondary Ab. (C) ELISA analysis of the dose dependent recombinant CD44v6-Fc binding ability of four biotinylated peptides. […] The maximal ELISA absorbance value of PFT binding to CD44v6-Fc was used to normalize the binding signal of individual peptides. The specific binding curve was generated using GraphPad Prism 6.0 software and absolute Kd values were calculated using nonlinear regression. (D) The specificity of PFT binding to recombinant CD44v6-Fc. Different concentrations of PFT and its two scrambled peptide versions were incubated with immobilized CD44v6-Fc or CD44-Fc, respectively for ELISA analyses. The maximal ELISA absorbance value of PFT binding to CD44v6-Fc was used to normalize the binding signal of individual peptides. The specific binding curve was generated using GraphPad Prism 6.0 software.
An ELISA was performed to analyze the binding of synthesized biotinylated peptides to recombinant CD44-Fc or CD44v6-Fc. Briefly, 100 μl of recombinant protein at 1 μg/ml in 0.05 M carbonate/bicarbonate coating buffer (pH 9.6) was added to each well of a 96-well microtiter plate and coated for 24 h at 4°C. The plates were blocked with 1% BSA in PBST buffer (0.05% Tween 20 in PBS) and then incubated with 100 μl of peptides or antibodies at various concentrations in 0.5% BSA in PBST for 2 h at RT. After washing extensively for five times with PBST buffer, the plates were incubated with 100 μl of HRP-conjugated streptavidin (1:2000 diluted with 0.5% BSA in PBST buffer) for 1 h at RT. After washing five times with PBST buffer, the Sigma fast O-phenylenediamine dihydrochloride tablets (Sigma-Aldrich, St. Louis, MO) were used as substrates and the absorbance was measured at 490 nm using an endpoint assay on a μQuant Universal Microplate Spectrophotometer (Bio-Tek Instruments, Winooski, VT).
For binding analysis, the ECD of CD44 and CD44v6 protein were expressed as Fc-tagged proteins (Figure 2A). Exon numbering was performed according to the study of Screaton et al. The ECD of CD44 was engineered as an N-terminal constant sequence (exons 1–5) followed by a nonvariable stretch at the C-terminus (exons 15–17) (Figure 2A). […]
In general terms: An ELISA detects its analyte on a solid surface through an enzyme-linked reagent.

For assay [1], the system named is v6 region peptide (KEQWFGNRWHEGYR) of CD44v6. The assay is described as follows: Peptide-Peptide ELISA, v6 region peptide. Particulars: biotinylated peptides 10 μM, v6 and control peptides 2 μM on streptavidin plate; 25 mM Tris pH 7.2, 150 mM NaCl, 0.1% BSA, 0.05% Tween-20; 2 h at RT; 490 nm; Figure 1D. The format is binding, human.
The next assay has as its system VFF18. Particulars: amino acids 19-29 of the v6 domain; ref [55]; cited from earlier work. The text has this:
Affinity selection of phage displaying peptides typically involves passing the phage library over desired target molecules, such as protein biomarkers of cancer. In this study, we aimed to obtain peptides specific to the v6 region of human CD44v6, a putative aggressive cancer and/or CSC biomarker. However, the v6 region contains only 45 amino acids while the CD44v6-ECD consists of 290 amino acids. […] VFF18 is a murine mAb gene ...

A further assay deals with CD44v6. Nature of the assay: Immunohistofluorescence, human PCa tissue microarrays. Particulars: T3N2M1 (grade III) TMA sample; 50 μM peptide; Figure 10C.
For another assay, the system named is Met signaling. The conditions noted are these: v6 peptide derivative; ref [36]; cited from earlier work.
The subject of another assay is SORE6-GFP^- cells. Further details: method as in PMID 22439924. Particulars: treatment with doxorubicin; proportion of SORE6-GFP^+ cells increased dramatically; ref [41]; cited from earlier work.
For the next assay, the system named is PC3M cells. Nature of the assay: MTT assay, PC3M cells. The format is cell-based. Particulars: Homo sapiens, PC-3M, 48 h, 5000 cells per well, triplicate, 562 nm, P< 0.05 vs v6A3, read-out: DOX IC50 of PC3M. How it is done:
To determine the dose response of drug-resistant PC3M1G4 cell lines, PC3M and v6A3 cells were seeded in triplicate in 96-well plates at 5000 cells per well and incubated for 24 h. A range of concentrations (1000, 100, 10, 1, 0.1, 0.01, 0.001, 0.0001 nM) of DOX in fresh medium were added to the cells. Control cells were treated with appropriate volumes of fresh medium. After 48 h, 20 μl of MTT (3-(4,5-dimethylthiazol-2-yl)-2,5-diphenyltetrazolium bromide) (5 mg/ ml) (Sigma-Aldrich, St. Louis, MO) was added to each well, followed by incubation at 37°C in 5% CO2 for 4 h. Subsequently, 100 μl of DMSO (Sigma-Aldrich, St. Louis, MO) was added and the plate was shaken for 20 min at RT to dissolve the formazan crystals. The optical density (absorbance units) was read at a wavelength of 562 nm on a μQuant Universal Microplate Spectrophotometer (Bio-Tek Instruments, Winooski, VT). The growth inhibition curve was generated using GraphPad Prism 6.0 software (GraphPad Software Inc., San Diego, CA). Absolute IC50 values were calculated using the log inhibitor vs. response curves for nonlinear regression.

Assay [2] addresses CD44v6-Fc ECD (exons 1-5, v6 exon 10, exons 15-17) (Homo sapiens), P16070. The assay is described as follows: ELISA. Particulars: N-terminal biotin on peptide, Fc fusion of CD44v6.

T1 sequence (P16070 with tags, fused parts or gaps isoform P16070-7 DEL223-384/DEL429-575 limits assumed): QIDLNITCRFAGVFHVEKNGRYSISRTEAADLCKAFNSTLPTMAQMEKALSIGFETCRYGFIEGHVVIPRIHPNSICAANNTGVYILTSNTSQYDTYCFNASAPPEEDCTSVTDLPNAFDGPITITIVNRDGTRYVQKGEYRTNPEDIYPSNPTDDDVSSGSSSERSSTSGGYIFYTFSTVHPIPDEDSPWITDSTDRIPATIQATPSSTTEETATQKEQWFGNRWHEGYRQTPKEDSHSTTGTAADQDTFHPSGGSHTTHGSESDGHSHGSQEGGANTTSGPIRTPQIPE
CD44v6-Fc ECD (exons 1-5, v6 exon 10, exons 15-17) (Homo sapiens), P16070, sequence (P16070 whole entry, looked up, change not shown, the tested form may be a part): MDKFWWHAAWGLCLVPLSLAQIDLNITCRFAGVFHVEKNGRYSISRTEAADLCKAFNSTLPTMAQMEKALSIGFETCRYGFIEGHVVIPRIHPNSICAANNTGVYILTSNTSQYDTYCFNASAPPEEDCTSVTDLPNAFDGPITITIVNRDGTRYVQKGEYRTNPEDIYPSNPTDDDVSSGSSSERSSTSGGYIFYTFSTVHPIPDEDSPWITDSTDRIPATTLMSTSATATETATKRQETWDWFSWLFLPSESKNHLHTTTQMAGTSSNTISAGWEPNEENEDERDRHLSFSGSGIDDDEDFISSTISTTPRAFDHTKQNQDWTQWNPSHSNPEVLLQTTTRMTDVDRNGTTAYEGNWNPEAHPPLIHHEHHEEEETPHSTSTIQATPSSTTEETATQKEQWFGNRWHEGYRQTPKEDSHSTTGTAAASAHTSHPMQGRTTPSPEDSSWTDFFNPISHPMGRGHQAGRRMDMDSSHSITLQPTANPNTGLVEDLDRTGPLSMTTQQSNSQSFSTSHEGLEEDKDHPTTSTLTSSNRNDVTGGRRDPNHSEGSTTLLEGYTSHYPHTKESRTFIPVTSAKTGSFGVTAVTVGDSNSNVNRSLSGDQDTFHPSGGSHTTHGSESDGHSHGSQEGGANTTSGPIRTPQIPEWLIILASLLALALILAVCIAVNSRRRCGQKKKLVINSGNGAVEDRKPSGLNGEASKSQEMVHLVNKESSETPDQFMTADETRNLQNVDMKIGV

In the case of `CC(C)[C@H](NC(=O)[C@H](Cc1ccccc1)NC(=O)[C@@H]1CCCN1C(=O)[C@@H](NC(=O)[C@H](CO)NC(=O)[C@@H](NC(=O)[C@@H](NC(=O)[C@H](Cc1ccccc1)NC(=O)[C@@H]1CCCN1C(=O)CNC(=O)[C@H](CO)NC(=O)CNC(=O)CCCC[C@@H]1SC[C@@H]2NC(=O)N[C@@H]21)[C@@H](C)O)C(C)C)C(C)C)C(=O)N[C@@H](Cc1c[nH]c2ccccc12)C(=O)N[C@@H](CC(N)=O)C(=O)N[C@@H](Cc1ccccc1)C(=O)N[C@H](C(=O)N[C@@H](C)C(=O)N[C@@H](CC(=O)O)C(=O)O)[C@@H](C)O` [PFT] (Biotin-GSGPFTVSVPFVWNFTAD-OH), the Kd on recombinant CD44v6-Fc (read-out: apparent affinity (equilibrium dissociation constant, Kd) to recombinant CD44v6) turned out to be 743 ± 153 nM.
As for `CC(C)[C@H](NC(=O)[C@H](CO)NC(=O)[C@H](CO)NC(=O)[C@@H](NC(=O)[C@H](CCCNC(=N)N)NC(=O)[C@@H]1CCCN1C(=O)CNC(=O)[C@H](C)NC(=O)[C@H](Cc1c[nH]c2ccccc12)NC(=O)CNC(=O)[C@H](CO)NC(=O)CNC(=O)CCCC[C@@H]1SC[C@@H]2NC(=O)N[C@@H]21)C(C)C)C(=O)N[C@@H](Cc1ccc(O)cc1)C(=O)N[C@@H](Cc1ccc(O)cc1)C(=O)N[C@@H](C)C(=O)NCC(=O)N[C@@H](C)C(=O)N[C@@H](CCCNC(=N)N)C(=O)O` [WAG] (Biotin-GSGWAGPRVSSVYYAGAR-OH), on recombinant CD44v6-Fc (read-out: apparent affinity (Kd) to recombinant CD44v6), the Kd was 8670 ± 1850 nM.
Regarding Biotin-GSG-SAYDRPL (Biotin-GSGSAYDRPL), in assay [1], the “binding of synthetic peptides to v6 region peptide compared to control peptide (in words)” value was “increased binding to v6 region peptide compared to control peptide”.
As to “WFGNRWHEGYR [peptide corresponding to amino acids 19-29 of the v6 domain]”, the “epitope for VFF18 binding (in words)” value in the assay with VFF18 is “minimum sequence required for high-affinity binding of VFF18”.
Take VTPVFSFATPNFVDW [scr1]: the “staining of PCa tissue by scrambled peptide (in words)” value with CD44v6 is “no staining”. The “binding to recombinant CD44v6-Fc (in words)” value at recombinant CD44v6-Fc was “negligible binding to CD44v6-Fc”.
KEQWFGNRWHEGYR [selection target]: the “inhibition of Met signaling (in words)” value in the assay on Met signaling is listed as “inhibited Met signaling”.
For orientation: IC50 means the concentration that gives 50% inhibition. Take `COc1cccc2c1C(=O)c1c(O)c3c(c(O)c1C2=O)C[C@@](O)(C(=O)CO)C[C@@H]3O[C@H]1C[C@H](N)[C@H](O)[C@H](C)O1` [DOX, doxorubicin]: the “cell death among SORE6-GFP^- cells on DOX treatment (in words)” value with SORE6-GFP^- cells is “extensive cell death was observed among SORE6-GFP^- cells”. In addition, the IC50 in the assay on PC3M cells amounted to 51.6 nM.
Regarding Biotin-GSG-WSNKGYD, the “binding of synthetic peptides to v6 region peptide compared to control peptide (in words)” value in assay [1] is reported as “increased binding to v6 region peptide compared to control peptide”.
On to VSVWFVTANFPPFTD [scr2], for which the “binding to recombinant CD44v6-Fc (in words)” value at recombinant CD44v6-Fc is “negligible binding to CD44v6-Fc”.
For the molecule Biotin-GSGWAGPRVSSVYYAGAR [WAG], in assay [2], the Kd is 8670 nM.
Biotin-GSGPFTVSVPFVWNFTAD [PFT]: the Kd in assay [2] was found to be 743 nM.
